Experimental data taken from PubChem BioAssay AID1645863 (Buhrlage Lab, Dana-Farber Cancer Institute and Novartis …, 2021).
Calls of active or inactive are those of the source. The rule behind the calls is not given here.

Target: Ubiquitin carboxyl-terminal hydrolase 10 (Homo sapiens) (UniProt Q14694)
Assay: ubiquitin-specific protease 10 DUB inhibitors, concentration-effect, biochemical, verification of primary screen actives (AID 1645863);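 note: potency values describe inhibition of USP10 cleavage of a fluorogenic ubiquitin substrate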
Conditions: USP10 deubiquitinase enzymatic assay

Chain of Ubiquitin carboxyl-terminal hydrolase 10 (Homo sapiens) (Q14694 whole entry, looked up): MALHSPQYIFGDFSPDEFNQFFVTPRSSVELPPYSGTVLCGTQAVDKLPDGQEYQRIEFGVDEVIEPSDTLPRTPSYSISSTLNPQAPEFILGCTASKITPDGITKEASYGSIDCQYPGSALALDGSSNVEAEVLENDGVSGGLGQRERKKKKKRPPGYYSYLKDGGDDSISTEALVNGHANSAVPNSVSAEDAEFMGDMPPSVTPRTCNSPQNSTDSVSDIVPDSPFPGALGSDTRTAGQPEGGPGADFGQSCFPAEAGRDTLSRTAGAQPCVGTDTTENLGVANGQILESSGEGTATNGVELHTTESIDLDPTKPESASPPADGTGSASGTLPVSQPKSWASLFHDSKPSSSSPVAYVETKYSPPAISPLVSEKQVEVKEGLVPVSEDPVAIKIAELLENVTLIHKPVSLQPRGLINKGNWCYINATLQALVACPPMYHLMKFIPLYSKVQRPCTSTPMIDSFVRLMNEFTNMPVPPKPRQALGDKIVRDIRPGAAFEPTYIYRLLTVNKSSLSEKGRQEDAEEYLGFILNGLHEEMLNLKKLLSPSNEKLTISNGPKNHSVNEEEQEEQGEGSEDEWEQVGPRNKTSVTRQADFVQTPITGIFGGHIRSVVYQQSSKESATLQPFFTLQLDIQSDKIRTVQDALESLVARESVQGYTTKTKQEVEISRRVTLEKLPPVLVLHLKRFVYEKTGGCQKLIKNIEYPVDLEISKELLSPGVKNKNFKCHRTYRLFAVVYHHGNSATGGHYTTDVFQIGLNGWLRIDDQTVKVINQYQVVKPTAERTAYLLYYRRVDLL

Compound	IC50
CC[C@H](C)[C@H](NC(=O)[C@H]([C@@H](C)CC)N(C)C(C)=O)C(=O)N[C@H](C(=O)N[C@@H](CC(C)C)C(=O)C1(C)CO1)[C@@H](C)O (some centres undefined)	> 40 µM (inactive)
Cc1ccc(NC(=O)COc2ccccc2/C=C2/NC(=O)N(Cc3ccc(F)cc3)C2=O)cc1	> 40 µM (inactive)
COc1ccc(C)cc1NC(=O)Nc1nnc(CC(=O)NCc2ccccc2)s1	> 40 µM (inactive)
Cc1ccccc1Cn1c(=O)n(CC2CCC(C(=O)NC3CCCC3)CC2)c(=O)c2ccccc21 (centres undefined)	> 40 µM (inactive)
COc1c(O)cc(CC(=O)O)c(C(C)=O)c1O	15.3 µM
COc1cc(NC(=O)Cn2c(=O)n(-c3ccc(CC(=O)NCc4ccco4)cc3)c(=O)c3ccccc32)cc(OC)c1	23.3 µM
O=S(=O)(c1ccccc1Cl)N1CCN(c2ccc3nnc(-c4ccco4)n3n2)CC1	> 40 µM (inactive)
CC1Oc2cc3c(-c4c(O)cc(O)c5c(O)c6c(cc45)OC(C)C(C)C6=O)c(O)cc(O)c3c(O)c2C(=O)C1C (centres undefined)	> 40 µM (inactive)
Cn1c(=O)n(CCc2ccccc2)c(=O)c2c1nc1n2CCN1Cc1ccccc1	> 40 µM (inactive)
COc1ccc(CC(=O)OCC(=O)N2c3ccccc3NC(=O)C2(C)C)cc1	> 40 µM (inactive)
Cc1ccc2[nH]c(=O)c(-c3nc4ccccn4c3NCc3ccccc3)cc2c1	23.7 µM
O=C(Nc1cccc(Br)c1)c1cc(-c2cccnc2)n[nH]1	19.9 µM
O=C(CN1CC=C(c2ccccc2)CC1)Nc1ccc(S(=O)(=O)N2CCOCC2)cc1	> 40 µM (inactive)
Cc1ccccc1-c1noc(-c2cccn(CC(=O)Nc3ccccc3F)c2=O)n1	> 40 µM (inactive)
Cc1cc(C(=O)Nc2cc([N+](=O)[O-])cc3oc(-c4ccccc4)cc23)on1	> 40 µM (inactive)
CCn1cc2c(n1)c(=O)n(Cc1ccccc1)c(=O)n2CC(=O)Nc1ccc(OC)cc1	35.9 µM
COc1ccc(Sc2nc3ccccc3n3cnnc23)cc1	> 40 µM (inactive)
CCOC(=O)C1CCN(Cc2cc(=O)oc3cc(O)c(O)cc23)CC1	1.68 µM
COc1ccc(NS(=O)(=O)c2cc(NC(=O)/C=C/c3ccco3)ccc2N2CCCC2)cc1	> 40 µM (inactive)
NC(=O)C1(N2CCCCC2)CCN(c2ncc3c(=O)n(-c4ccccc4)c(=O)[nH]c3n2)CC1	> 40 µM (inactive)
COc1cc(C2CC(=O)c3c([nH]c(C(=O)OCCOc4ccccc4)c3C)C2)cc(OC)c1OC (centres undefined)	> 40 µM (inactive)
O=C(Nc1ccccc1C(=O)O)c1ccc(CSCc2ccccc2)cc1	10.4 µM

More lines, now with the values ahead:

IC50	Compound
inactive	O=c1cc(Cc2ccccc2)nc2c(-c3ccccc3)c(COc3ccccc3)[nH]n12
0.584 µM	CCCCCCCCC/C=C/C(=O)CCc1c(O)c(C=O)c2c(c1O)C(=O)OC2O (centres undefined)
> 40 µM (inactive)	CCOc1ccc(-c2nc(SCC(=O)Nc3cccc(C)c3)n3[nH]c(=O)cc3n2)cc1
> 40 µM (inactive)	COc1ccc(-c2nc(-c3cc4cc(OC)ccc4[nH]c3=O)no2)cc1
> 40 µM (inactive)	Cc1ccc(NC(=O)Nc2nnc(CC(=O)NCc3ccccc3)s2)c(Cl)c1
> 40 µM (inactive)	COc1ccccc1C(=O)N1CCC[C@H](Cn2nnc(-c3cccnc3)n2)C1
> 40 µM (inactive)	CSc1cccc(NC(=O)C2C3C=CC4(O3)C2C(=O)N(CCc2ccccc2)C4C(=O)NC2CCCCC2)c1 (centres undefined)
> 40 µM (inactive)	Cc1ccc(CS(=O)(=O)c2cn(CC(=O)NCCc3ccccc3)c3ccccc23)cc1
15.9 µM	O=C(CSc1ccc(-c2cccc([N+](=O)[O-])c2)nn1)Nc1cccc(F)c1
> 40 µM (inactive)	N#C/C(=C\c1ccccc1F)c1nnc(N)s1
> 40 µM (inactive)	Cc1ccc(Nc2nc3c(S(=O)(=O)c4ccccc4)nnn3c3ccccc23)c(C)c1
> 40 µM (inactive)	O=C(c1cccnc1)N1CCCC(Cc2cc(-c3ncc[nH]3)ncn2)C1 (centres undefined)
